Drawing on PubChem BioAssay (NCI), this text covers TGI and GI50 for 18 compounds.

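1) Cells in 96-well plates. 2) Compound, 48 h, 5 concentrations. 3) Linear interpolation between surrounding doses. 4) Unreached endpoint = highest concentration. Abbreviation: GI50, concentration required for 50% inhibition of growth. TGI: total growth inhibition.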 A value given as a limit tells only on which side of the number the result lay.

Some test systems named below: HOP-18 NSCLC; SNB-78 CNS; DMS 114 small cell lung; LXFL 529 NSCLC; KM20L2 colon; DMS 273 small cell lung; DLD-1 colon.
Holding throughout (test): inhibition of tumour cell growth, NCI panel, 48 h

Turning to `CCN(CC)CCNC(=O)c1nn(C)c(=S)[nH]c1=S`, the TGI in the assay with HOP-18 NSCLC, in the assay with SNB-78 CNS, in the assay with DMS 114 small cell lung, with LXFL 529 NSCLC, with KM20L2 colon and with DMS 273 small cell lung was > 100 µM in each case. The TGI in the assay with DLD-1 colon was > 100 µM.
As for `COC(=O)C(=O)C(C#N)c1ccc(CC#N)cc1` (configuration not stated), the TGI with SNB-78 CNS, with LXFL 529 NSCLC, with KM20L2 colon, in the assay on DMS 273 small cell lung and in the assay with DLD-1 colon was > 100 µM in each case.
In the case of `Cc1cc(C)nc(NS(=O)(=O)c2ccc(Nc3c4ccc(Cl)cc4nc4c(C(=O)Nc5ccc(S(=O)(=O)N=C(N)N)cc5)cccc34)cc2)n1`, the TGI with SNB-78 CNS, in the assay with DMS 114 small cell lung, in the assay with LXFL 529 NSCLC, in the assay on KM20L2 colon and with DLD-1 colon was > 100 µM each time.
For `CC(=O)/C(=C\C1=CCCO1)C(=O)Nc1ccccc1C`, the TGI in the assay on HOP-18 NSCLC, in the assay with SNB-78 CNS, with DMS 114 small cell lung, with LXFL 529 NSCLC and in the assay with DLD-1 colon was > 100 µM in each case.
With `COc1ccc2cc3[n+](cc2c1OC)CCc1cc(O)c(O)cc1-3`, the TGI in the assay with SNB-78 CNS, with DMS 114 small cell lung, in the assay on LXFL 529 NSCLC, with KM20L2 colon, in the assay with DMS 273 small cell lung and in the assay with DLD-1 colon was > 100 µM in each case.
On to `COc1ccc(C(=O)OC2C=COC(C)C2OC(=O)c2ccc(OC)cc2)cc1` (configuration not stated), for which the TGI was > 61.1 µM with HOP-18 NSCLC; > 100 µM in the assay on SNB-78 CNS; 37.1 µM in the assay with DMS 114 small cell lung; 28.1 µM with LXFL 529 NSCLC; > 77.1 µM with KM20L2 colon; 73.6 µM in the assay with DMS 273 small cell lung. Also, in the assay with DLD-1 colon, the TGI is > 52.8 µM.
Turning to `CCC[CH2][Sn]([CH2]CCC)([O]C(=O)C(N)CSC)[O]C(=O)C(N)CSC` (configuration not stated), the GI50 with HOP-18 NSCLC is 10.2 µM; in the assay on SNB-78 CNS it was 3.17 µM; in the assay with DMS 114 small cell lung, 2.72 µM; in the assay with LXFL 529 NSCLC it was 0.969 µM; with KM20L2 colon it was 18.6 µM; in the assay with DLD-1 colon, 6.44 µM. The TGI came out at 21.8 µM with HOP-18 NSCLC; 9.64 µM in the assay on SNB-78 CNS; 12.8 µM in the assay on DMS 114 small cell lung; 3.49 µM with LXFL 529 NSCLC; 53.4 µM in the assay with KM20L2 colon; 18.3 µM in the assay with DLD-1 colon.
With `Cc1ccc(NC(=O)CCC/C(CC(=O)c2ccc(Br)cc2)=N/NC(=O)CC#N)cc1`, the TGI in the assay on SNB-78 CNS, in the assay with DMS 114 small cell lung, in the assay on LXFL 529 NSCLC, in the assay on KM20L2 colon and in the assay on DLD-1 colon was > 100 µM in each case.
Consider `CCCCc1ccc(-n2c3nc(=O)n(C)c(=O)c-3nc3ccccc32)cc1`, for which the TGI in the assay with HOP-18 NSCLC stood at 22.7 µM; in the assay with SNB-78 CNS, 39 µM; in the assay on DMS 114 small cell lung it was 18.5 µM; in the assay with LXFL 529 NSCLC it was 30.4 µM; with KM20L2 colon it was 14.4 µM; in the assay on DMS 273 small cell lung, 26.4 µM.
On to `Nc1nc(=S)[nH]c(C(=O)Nc2ccc(Cl)c(Cl)c2)c1-c1ccc(Cl)cc1`, for which the TGI in the assay with HOP-18 NSCLC, in the assay on DMS 114 small cell lung, in the assay with LXFL 529 NSCLC, in the assay on KM20L2 colon and in the assay on DLD-1 colon was > 100 µM each time.
`COC(=O)C12CC(c3ccccc31)C1C(=O)OC(=O)C12` (configuration not stated): the TGI in the assay on SNB-78 CNS, in the assay on DMS 114 small cell lung, in the assay on LXFL 529 NSCLC, in the assay with KM20L2 colon, in the assay on DMS 273 small cell lung and in the assay on DLD-1 colon was > 100 µM in each case.
Take `O=C(Nc1ccc(F)cc1)C(=O)C(C1OC(=O)c2ccccc21)[N+](=O)[O-]` (configuration not stated): the TGI in the assay with SNB-78 CNS, in the assay on DMS 114 small cell lung, with LXFL 529 NSCLC, in the assay on KM20L2 colon and in the assay on DLD-1 colon was > 100 µM throughout.
`O=c1[nH]c2c3ccccc3ccc2c2cc3c(cc12)OCO3`: the TGI in the assay with HOP-18 NSCLC, in the assay with SNB-78 CNS, in the assay on LXFL 529 NSCLC, with KM20L2 colon, in the assay with DMS 273 small cell lung and with DLD-1 colon was > 100 µM in each case.
Consider `Cc1ccc(/C=C/C(=O)c2sc(-c3cccnc3)nc2C)cc1`, for which the TGI in the assay on HOP-18 NSCLC, with SNB-78 CNS, in the assay with KM20L2 colon, in the assay on DMS 273 small cell lung and in the assay on DLD-1 colon was > 100 µM throughout.
In the case of `CCOC(=O)NC(=O)c1cn(CCCOC(=O)CCCCCCCCCCC(=O)OCCCn2cc(C(=O)NC(=O)OCC)c(=O)n(C)c2=O)c(=O)n(C)c1=O`, the TGI in the assay with HOP-18 NSCLC, in the assay with SNB-78 CNS, with DMS 114 small cell lung, with LXFL 529 NSCLC, in the assay with DMS 273 small cell lung and in the assay with DLD-1 colon was > 100 µM in each case.
As to `O=C(O)CC12C3C4C5C3C1C5C42` (configuration not stated), the TGI with SNB-78 CNS, in the assay on DMS 114 small cell lung, with LXFL 529 NSCLC, in the assay on KM20L2 colon, in the assay with DMS 273 small cell lung and with DLD-1 colon was > 100 µM in each case.
As to `CN(C)CC/C(=N\Nc1ccccc1)c1ccccc1`, the TGI in the assay with HOP-18 NSCLC was > 100 µM; with SNB-78 CNS, 89.7 µM; in the assay with DMS 114 small cell lung it was > 100 µM; in the assay on DLD-1 colon, > 100 µM.
On to `CCCCCCCCCCC(O)C1CCC(C(O)CCC(O)C2CCC(CCCCCCC[C@H](O)CC3=C[C@@H](C)OC3=O)O2)O1` (some centres not stated), for which the TGI in the assay on HOP-18 NSCLC, in the assay on SNB-78 CNS, in the assay on LXFL 529 NSCLC, with KM20L2 colon, with DMS 273 small cell lung and with DLD-1 colon was > 100 µM in each case.
